# Experimental data as given in patent US8765949B2, “CCR2 receptor antagonists and uses thereof” (Boehringer Ingelheim International GmbH, priority 2009, dated 2014).
# Target: T1, CCR2 (Homo sapiens, UniProt P41597)
# T1 construct: Membranes were prepared from THP-1 cells; endogenous in cells; host or cells: THP-1 (human acute monocytic leukaemia cells), membrane preparation
# T1 sequence (P41597 1-360 isoform P41597-2): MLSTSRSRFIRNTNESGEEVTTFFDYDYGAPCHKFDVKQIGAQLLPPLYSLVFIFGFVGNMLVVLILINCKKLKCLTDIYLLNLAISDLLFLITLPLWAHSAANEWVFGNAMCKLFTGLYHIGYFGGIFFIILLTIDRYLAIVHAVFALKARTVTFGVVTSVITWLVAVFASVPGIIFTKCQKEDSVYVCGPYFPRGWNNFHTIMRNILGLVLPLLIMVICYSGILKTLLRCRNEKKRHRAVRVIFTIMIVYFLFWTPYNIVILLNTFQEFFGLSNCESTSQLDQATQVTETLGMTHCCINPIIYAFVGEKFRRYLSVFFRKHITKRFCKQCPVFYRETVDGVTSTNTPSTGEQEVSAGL
# Assay: CCR2 receptor membrane binding assay ([125I]MCP-1, THP-1 membranes, SPA beads)
# Conditions: dissociation constant hKi; THP-1 cell membranes, [125I]MCP-1, bound radioactivity after 8 h
# Experimental: The above exemplary substances have been tested for binding to CCR2 using a binding assay as outlined herein below:
# THP-1 cells (human acute monocytic leukaemia cells) were cultured under standardized conditions at 37° C. and 5% CO2 in a humidified incubator. THP-1 cells were cultivated in RPMI 1640 medium (Gibco 21875) containing 1% MEM-NEAA (Gibso 11140) 2 mM L-glutamine, 1.5 g/L sodium bicarbonate, 4.5 g/L glucose, 10 mM HEPES and 1.0 mM sodium pyruvate, 90%; 10% fetal calf serum (FCS Gibco 10500-064).
# Membranes were prepared from THP-1 cells. THP-1 cells were centrifuged at 300×g at 4° C. for 10 min. The cell pellet was resuspendet in Phosphate Buffer Saline (PBS, including 10 μM Pefabloc and a protease inhibitor mix ‘complete’, Boehringer Mannheim (1 tablet/50 ml)), to a concentration of […]. The membrane preparation was performed by disrupting the cells by nitrogen […] (at 50 bar, for 1 h) in a “Nitrogen Bombe” (Parr Instrument). Cell debris was removed by centrifugation (800×g at 4° C., 1 min). The supernatant was centrifuged at 80000×g, 4° C. for 30 min to sediment the cell membranes. Usually 50 mg of protein (Bradford assay) were yielded from 1×10E9 cells. The membranes were resuspendet in 25 mM HEPES, 25 mM MgCl2, 1 mM CaCl2, 10% Glycerine for storage in aliquots at −80° C. in 25 mM HEPES, 25 mM MgCl2, 1 mM CaCl2, 10% Glycerine and stored at −80° C.
# Receptor Membrane Binding Assay:
# Perkin Elmer NEX 332 Jod 125 MCP-1, Stock: 2200 Ci/mmol solved in 2000 μl assay buffer, stored at −20° C. THP-1 membrane were adjusted with 25 mM HEPES, pH 7.2; 5 mM MgCl2; 0.5 mM CaCl2; 0.2% BSA assay buffer to a concentration of 2.5 μg/15 μl. Amersham Biosciences PVT-WGA Beads (RPNQ0001) were adjusted with assay buffer to a concentration of 0.24 mg/30 μl. For preparation of the membrane-bead-suspension membranes and beads were incubated for 30 min at RT under rotation (60 rpm) with a ratio of 1:2. Test compounds dissolved in 100% DMSO to a concentration of 10 mM and are further diluted with 100% DMSO to 1 mM. All additional compound dilutions were obtained with assay buffer, final 1% DMSO. Compounds, membrane-bead-suspension and [125I]MCP-1 (ca. 25000 cpm/10 μl) were incubated. Bound radioactivity was determined by scintillation counter after 8 h. Determination of affinity of test compounds (dissociation constant hKi) is calculated by iterative fitting of experimental data using the “easy sys” program, which is based on law of mass action (Schittkowski K. (1994), Numerische Mathematik, Vol. 68, 129-142).
row,Structure (SMILES),Ki
1,Cc1cccc([C@@H]2CCC[C@H](CNc3nc(C)nc(C(=O)N4CCC(N5CCC(N(C)S(C)(=O)=O)CC5)CC4)c3C)O2)c1 [Example 22],11 nM
2,CO[C@@H]1COCC[C@@H]1NC1CCN(C(=O)c2ncnc(NC[C@H]3CCC[C@@H](c4ccc(OC(F)(F)F)cc4)O3)c2C)CC1 [Example 53b],20 nM
3,Cc1c(NCC2CCCC(c3ccccc3)O2)ncnc1C(=O)N1CCC(N2CCC(N(C)S(C)(=O)=O)CC2)CC1 (centres unmarked) [Example 10],142 nM
4,CO[C@H]1COCC[C@H]1NC1CCN(C(=O)c2cc(NC[C@H]3CCC[C@@H](c4ccc(C(F)(F)F)cc4)O3)nc(C(F)(F)F)n2)CC1 [Example 53s],0.2 nM
5,CO[C@@H]1COCC[C@@H]1NC1CCN(C(=O)c2cc(NC[C@H]3CCC[C@@H](c4ccc(OC(F)(F)F)cc4)O3)ncn2)CC1 [Example 28m],1 nM
6,Cc1c(NCC2CCCC(c3ccc(C(F)(F)F)o3)O2)ncnc1C(=O)N1CCC(N2CCC(N(C)S(C)(=O)=O)CC2)CC1 (centres unmarked) [Example 28b],0.5 nM
7,CO[C@@H]1COCC[C@@H]1NC1CCN(C(=O)c2ncnc(NC[C@H]3CCC[C@@H](c4ccc(Cl)cc4)O3)c2C)CC1 [Example 41],3 nM
8,CO[C@H]1COCC[C@H]1NC1CCN(C(=O)c2nc(C)nc(NC[C@@H]3CCC[C@H](c4cccc(C)c4)O3)c2C)CC1 [Example 34],63 nM
9,Cc1ccc([C@@H]2CCC[C@H](CNc3nc(C)nc(C(=O)N4CCC(N5CCC(N(C)S(C)(=O)=O)CC5)CC4)c3C)O2)cc1 [Example 20],11 nM
10,CO[C@@H]1COCC[C@@H]1NC1CCN(C(=O)c2nc(C)nc(NC[C@@H]3CCC[C@H](c4cccc(C)c4)O3)c2C)CC1 [Example 35],96 nM
11,CO[C@H]1COCC[C@H]1NC1CCN(C(=O)c2ncnc(NC[C@@H]3CCC[C@H](c4ccc(C)cc4)O3)c2C)CC1 [Example 31],276 nM
12,Cc1c(NCC2CCCC(c3ccc(F)cc3)O2)ncnc1C(=O)N1CCC(N2CCC(N(C)S(C)(=O)=O)CC2)CC1 (centres unmarked) [Example 14],479 nM
13,COC1CCN(C2CCN(C(=O)c3ncnc(NC[C@@H]4CCC[C@H](c5cccc(C(F)(F)F)c5)O4)c3C)CC2)CC1 [Example 3],203 nM
14,COC1CCN(C2CCN(C(=O)c3ncnc(NC[C@H]4CCC[C@@H](c5ccc(C(F)(F)F)cc5)O4)c3C)CC2)CC1 [Example 4],26 nM
15,COC1COCCC1NC1CCN(C(=O)c2ncnc(NC[C@@H]3CCC[C@H](c4ccc(C)c(F)c4)O3)c2C)CC1 (some centres unmarked) [Example 28c],0.4 nM
16,CO[C@H]1COCC[C@H]1N(C)C1CCN(C(=O)c2ncnc(NC[C@H]3CCC[C@@H](c4ccc(C(F)(F)F)cc4)O3)c2C)CC1 [Example 54a],5 nM
17,CO[C@H]1COCC[C@H]1NC1CCN(C(=O)c2ncnc(NC[C@H]3CCC[C@@H](c4ccc(OC(F)(F)F)cc4)O3)c2C)CC1 [Example 53f],12 nM
18,COc1nc(NC[C@H]2CCC[C@@H](c3ccc(OC(F)(F)F)cc3)O2)c(C)c(C(=O)N2CCC(N[C@@H]3CCOC[C@@H]3OC)CC2)n1 [Example 53ad],0.3 nM
19,CO[C@H]1COCC[C@H]1NC1CCN(C(=O)c2ncnc(NC[C@H]3CCC[C@@H](c4ccc(C)cc4)O3)c2C)CC1 [Example 30],5 nM
20,COc1nc(NC[C@H]2CCC[C@@H](c3ccc(OC(F)(F)F)cc3)O2)cc(C(=O)N2CCC(N[C@H]3CCOC[C@H]3OC)CC2)n1 [Example 53r],0.8 nM
21,CO[C@@H]1COCC[C@@H]1NC1CCN(C(=O)c2cc(NC[C@H]3CCC[C@@H](c4ccc(C)cc4)O3)ncn2)CC1 [Example 28i],221 nM
22,CO[C@H]1COCC[C@H]1NC1CCN(C(=O)c2ncnc(NC[C@@H]3CCC[C@H](c4cccc(C(F)(F)F)c4)O3)c2C)CC1 [Example 46],302 nM

row,Structure (SMILES),Ki
1,CO[C@H]1COCC[C@H]1NC1CCN(C(=O)c2nc(C(F)(F)F)nc(NC[C@H]3CCC[C@@H](c4ccccc4)O3)c2C)CC1 [Example 53ah],0.8 nM
2,CO[C@H]1COCC[C@H]1NC1CCN(C(=O)c2ncnc(NC[C@@H]3CCC[C@H](c4ccc(C(F)(F)F)cc4)O3)c2C)CC1 [Example 36],51 nM
3,COC1COCCC1NC1CCN(C(=O)c2ncnc(NCC3CCCC(c4ccc(C(F)(F)F)o4)O3)c2C)CC1 (centres unmarked) [Example 28e],20 nM
4,Cc1ccc([C@@H]2CCC[C@H](CNc3ncnc(C(=O)N4CCC(N5CCC(N(C)S(C)(=O)=O)CC5)CC4)c3C)O2)cc1 [Example 17],11 nM
5,CO[C@H]1COCC[C@H]1NC1CCN(C(=O)c2ccnc(NC[C@H]3CCC[C@@H](c4ccc(C)cc4)O3)c2C)CC1 [Example 53e],16 nM
6,"Cc1c(NC[C@@H]2CCC[C@H](c3ccccc3)O2)ncnc1C(=O)N1CCC(N2CCC(N(C)S(C)(=O)=O)CC2)CC1 (single isomer, unassigned) [Example 13]",486 nM
7,Cc1c(NC[C@H]2CCC[C@@H](c3ccc(C(F)(F)F)cc3)O2)ncnc1C(=O)N1CCC(N2CCC3(CC2)Cc2ccccc2O3)CC1 [Example 53y],16 nM
8,CO[C@@H]1COCC[C@@H]1NC1CCN(C(=O)c2ncnc(NC[C@H]3CCC[C@@H](c4cccc(C(F)(F)F)c4)O3)c2C)CC1 [Example 47],94 nM
9,Cc1c(NC[C@@H]2CCC[C@H](c3cccc(C(F)(F)F)c3)O2)ncnc1C(=O)N1CCC(N2CCC(N(C)S(C)(=O)=O)CC2)CC1 [Example 28a],45 nM
10,CO[C@H]1COCC[C@H]1NC1CCN(C(=O)c2ncnc(NC[C@@H]3CCC[C@H](c4cccc(C)c4)O3)c2C)CC1 [Example 32],333 nM
11,Cc1c(NC[C@H]2CCC[C@@H](c3ccc(OC(F)(F)F)cc3)O2)ncnc1C(=O)N1CCC(NC2CCOCC2F)CC1 (some centres unmarked) [Example 53w],0.6 nM
12,CO[C@H]1COCC[C@H]1NC1CCN(C(=O)c2ncnc(NC[C@@H]3CCC[C@H](c4ccc(Cl)cc4)O3)c2C)CC1 [Example 44],166 nM
13,CO[C@@H]1COCC[C@@H]1NC1CCN(C(=O)c2ccnc(NC[C@H]3CCC[C@@H](c4ccccc4)O3)c2C)CC1 [Example 53g],16 nM
14,CO[C@@H]1COCC[C@@H]1NC1CCN(C(=O)c2nccc(NC[C@H]3CCC[C@@H](c4ccc(C)cc4)O3)c2C)CC1 [Example 53k],9 nM
15,CO[C@H]1COCC[C@H]1NC1CCN(C(=O)c2cc(NC[C@H]3CCC[C@@H](c4ccc(C)cc4)O3)nc(C(F)(F)F)n2)CC1 [Example 53h],2 nM
16,Cc1ccc(C2CCC[C@H](CNc3ncnc(C(=O)N4CCC(N5CCC(c6ccc(C(=O)O)cc6)C5)CC4)c3C)O2)cc1 (some centres unmarked) [Example 58],1130 nM
17,COc1nc(NC[C@H]2CCC[C@@H](c3ccccc3)O2)c(C)c(C(=O)N2CCC(N[C@H]3CCOC[C@H]3OC)CC2)n1 [Example 53ag],5 nM
18,CO[C@@H]1COCC[C@@H]1NC1CCN(C(=O)c2ncnc(NC[C@H]3CCC[C@@H](c4ccc(C(F)(F)F)cc4)O3)c2C)CC1 [Example 52],1 nM
19,Cc1ccc(C2CCC[C@H](CNc3ncnc(C(=O)N4CCC(N5CCC(c6ccccc6C(=O)O)C5)CC4)c3C)O2)cc1 (some centres unmarked) [Example 59],263 nM
20,Cc1ccc([C@@H]2CCC[C@H](CNc3ncnc(C(=O)N4CCC(N5CCC(c6cccc(C(=O)O)c6)C5)CC4)c3C)O2)cc1 (some centres unmarked) [Example 55],311 nM
21,COc1nc(NC[C@H]2CCC[C@@H](c3ccc(C)cc3)O2)cc(C(=O)N2CCC(N[C@H]3CCOC[C@H]3OC)CC2)n1 [Example 53n],5 nM
22,Cc1ccc([C@@H]2CCC[C@H](CNc3ncnc(C(=O)N4CCC(NC5CCOCC5F)CC4)c3C)O2)cc1 (some centres unmarked) [Example 53v],7 nM
